# Measured values published in publication PMC6199744, “Development of Chemical Proteomics for the Folateome and Analysis of the Kinetoplastid Folateome” (ACS Infectious Diseases, 2018).
# System: L. major lysate proteins
# Assay: Multitargeted bead mixture chemoproteomics, single concentration competition, proteome-wide
# Format: binding
# Settings: for fold change: vehicle control = 1
compound,measurement,setting,value
NCCCNc1ccc(C(=O)NC(CCC(=O)O)C(=O)O)cc1 (stereo not drawn) [compound 7],fold change vs vehicle control,"protein LMJF.28.0110 PROTEASOME BETA 3 SUBUNIT, PUTATIVE",0.99
same,fold change vs vehicle control,"protein LMJF.28.0490 PROPIONYL-COA C[…] CHAIN, PUTATIVE",1.21
same,fold change,"protein LMJF.28.0710 HYPOTHETICAL PROTEIN, CONSERVED (SNARE associated Golgi protein, putative)",0.86
same,fold change vs vehicle control,"protein LMJF.28.0930 HYPOTHETICAL PROTEIN, CONSERVED",0.98
same,fold change vs vehicle control,protein LMJF.28.0960 40S RIBOSOMAL PROTEIN S14,0.99
same,fold change vs vehicle control,"protein LMJF.28.1530 ATP DEPENDENT DEAD-BOX HELICASE, PUTATIVE",0.89
same,fold change relative to vehicle control,"protein LMJF.28.1730, PROTEASOME REGULATORY NON-ATP-ASE SUBUNIT 2, PUTATIVE",1.27
same,fold change relative to vehicle control,"protein LMJF.28.2310, EUKARYOTIC TRANSLATION INITIATION FACTOR, PUTATIVE",0.98
same,fold change vs vehicle control,"protein LMJF.28.2430 VACUOLAR ATP SYNTHASE SUBUNIT B, PUTATIVE",1.03
same,fold change relative to vehicle control,"protein LMJF.28.2770, HEAT-SHOCK PROTEIN HSP70, PUTATIVE",1.05
same,fold change,"protein LMJF.28.2910 GLUTAMATE DEHYDROGENASE, PUTATIVE",0.88
same,fold change vs vehicle control,"protein LMJF.29.0120 PROTEASOME REGULATORY NON-ATPASE SUBUNIT, PUTATIVE",1.1
same,fold change,"protein LMJF.29.0620 ATP-BINDING CASSETTE PROTEIN SUBFAMILY A, MEMBER 10, PUTATIVE",0.79
same,fold change vs vehicle control,"protein LMJF.29.0760 […] BI[…], PUTATIVE,HEAT SHOCK PROTEIN 90, PUTATIVE",1.16
same,fold change relative to vehicle control,"protein LMJF.29.0850, HIGH MOBILITY GROUP PROTEIN HOMOLOG TDP-1, PUTATIVE",0.78
same,fold change vs vehicle control,"protein LMJF.29.0940 HY[…], CONSERVED",1.11
same,fold change vs vehicle control,protein LMJF.29.1160 TRYPAREDOXIN,0.93
same,fold change vs vehicle control,"protein LMJF.29.1240 HY[…], UNKNOWN FUNCTION",1.04
same,fold change vs vehicle control,protein LMJF.29.1270 100 kDa heat shock protein (Hsp100),1.12
same,fold change vs vehicle control,"protein LMJF.29.1310 CARNITINE/CHOLINE ACETYLTRANSFERASE, PUTATIVE",1
same,fold change relative to vehicle control,"protein LMJF.29.1760, PARAFLAGELLAR ROD PROTEIN 1D, PUTATIVE",1.2
same,fold change vs vehicle control,"protein LMJF.29.1780 DIPHTHAMIDE SYNTHESIS PROTEIN, PUTATIVE",0.94
same,fold change,"protein LMJF.29.2200 GTP-BINDING PROTEIN, PUTATIVE (dynamin-1-like protein)",0.93
same,fold change,protein LMJF.29.2310 ENOYL-COA HYDRATASE/ISOMERASE-LIKE PROTEIN,0.93
same,fold change vs vehicle control,"protein LMJF.29.2360 ASPARTYL AMINOPEPTIDASE, PUTATIVE,METALLO-PEPTIDASE, CLAN MH, FAMILY M20",1.05
same,fold change,protein LMJF.29.2860 40S RIBOSOMAL PROTEIN S19-LIKE PROTEIN,1.02
same,fold change,"protein LMJF.30.0580 HYPOTHETICAL PROTEIN, CONSERVED (AMP-binding enzyme, putative)",0.85
same,fold change,"protein LMJF.30.0850 SURFACE PROTEIN AMASTIN, PUTATIVE",0.92
same,fold change vs vehicle control,"protein LMJF.30.1250 PYRIDOXAL KINASE, PUTATIVE",1.11
same,fold change vs vehicle control,"protein LMJF.30.2580 RETICULON DOMAIN PROTEIN, 22 KDA POTENTIALLY AGGRAVATING PROTEIN (PAPLE22)",0.95
same,fold change relative to vehicle control,"protein LMJF.30.3090, HY[…], CONSERVED (RNA-binding protein 42, putative)",1.06
same,fold change vs vehicle control,"protein LMJF.30.3240 GLUTAMYL-TRNA SYNTHETASE, PUTATIVE",0.99
same,fold change,"protein LMJF.30.3430 HYPOTHETICAL PROTEIN, CONSERVED (protein mkt1, putative)",1
same,fold change,protein LMJF.30.3520 S-ADENOSYLMETHIONINE SYNTHETASE,0.93
same,fold change,"protein LMJF.30.3570 ZINC FINGER-DOMAIN PROTEIN, PUTATIVE",0.92
same,fold change relative to vehicle control,"protein LMJF.31.0080, HY[…], CONSERVED",1.21
same,fold change vs vehicle control,"protein LMJF.31.0340 AMINO ACID PERMEASE, PUTATIVE",1.04
same,fold change,"protein LMJF.31.1130 N-ACYL-L-AMINO ACID AMIDOHYDROLASE, PUTATIVE",1.03
same,fold change vs vehicle control,protein LMJF.31.1640 THIOLASE PROTEIN-LIKE PROTEIN,0.99
same,fold change relative to vehicle control,"protein LMJF.31.2150, PROSTAGLANDIN F2-ALPHA SYNTHASE/D-ARABINOSE DEHYDROGENASE",2.99
same,fold change vs vehicle control,"protein LMJF.31.2250 3,2-TRANS-ENOYL-COA ISOMERASE, MIT[…], PUTATIVE",1.97
same,fold change vs vehicle control,"protein LMJF.32.0750 RNA BINDING PROTEIN, PUTATIVE",0.99
same,fold change vs vehicle control,"protein LMJF.32.1060 DYNEIN, PUTATIVE",1.08
same,fold change relative to vehicle control,"protein LMJF.32.1820, IRON […], PUTATIVE",1.09
same,fold change relative to vehicle control,"protein LMJF.32.2320, C-14 STEROL REDUCTASE, PUTATIVE",1.65
same,fold change vs vehicle control,protein LMJF.32.3870 MYOSIN XXI,0.92
same,fold change relative to vehicle control,"protein LMJF.33.0240, THIOL-DEPENDENT REDUCTASE 1",1.07
same,fold change,"protein LMJF.33.0280 HYPOTHETICAL PROTEIN, CONSERVED",0.96
same,fold change relative to vehicle control,"protein LMJF.33.0890, HYPOTHETICAL PROTEIN, CONSERVED",0.93
same,fold change vs vehicle control,"protein LMJF.33.1070 HY[…], UNKNOWN FUNCTION",1.09
same,fold change vs vehicle control,"protein LMJF.33.1330 CYSTEINE CONJUGATE BETA-LYASE, AMINOTRANSFERASE- LIKE PROTEIN",0.98
same,fold change,"protein LMJF.33.1590 HYPOTHETICAL PROTEIN, CONSERVED (3-ketoacyl-CoA reductase, putative)",1
same,fold change relative to vehicle control,"protein LMJF.33.1860, ATP-BINDING CASSETTE PROTEIN SUBFAMILY D, MEMBER 3, PUTATIVE",1.06
same,fold change relative to vehicle control,"protein LMJF.33.2340, SUCCINYL-COA:3-KETOACID-COENZYME A TRANSFERASE, MIT[…], PUTATIVE",1.19
same,fold change relative to vehicle control,"protein LMJF.33.2440, HY[…], CONSERVED",1.14
same,fold change relative to vehicle control,"protein LMJF.33.2540, CARBOXYPEPTIDASE, PUTATIVE,METALLO-PEPTIDASE, CLAN MA(E), FAMILY M32",1.06
same,fold change,"protein LMJF.33.3150 40S RIBOSOMAL PROTEIN S13, PUTATIVE",0.96
same,fold change relative to vehicle control,"protein LMJF.34.0140, MALATE DEHYDROGENASE",6.88
same,fold change vs vehicle control,protein LMJF.34.0440 RIBOSOMAL PROTEIN S25,1.13
same,fold change relative to vehicle control,"protein LMJF.34.2580, HY[…], CONSERVED (ALBA-domain protein 3)",1.04
same,fold change relative to vehicle control,"protein LMJF.34.3250, PUTATIVE PYRUVATE/INDOLE-PYRUVATE CARBOXYLASE, PUTATIVE",1.08
same,fold change,"protein LMJF.34.4370 20S PROTEASOME BETA 7 SUBUNIT, (PUTATIVE)",0.97
same,fold change vs vehicle control,"protein LMJF.34.4620 HYPOTHETICAL PROTEIN, CONSERVED",1.3
same,fold change,"protein LMJF.35.0070 PROHIBITIN, PUTATIVE",1.03
same,fold change vs vehicle control,"protein LMJF.35.0360 ENOYL-COA HYDRATASE/ISOMERASE FAMILY PROTEIN, CONSERVED",1.09
same,fold change,"protein LMJF.35.0370 ATP-DEPENDENT DEAD-BOX RNA HELICASE, PUTATIVE",0.98
